According to ChEMBL document CHEMBL2440076, “New triarylpyrazoles as broad-spectrum anticancer agents: design, synthesis, and biological evaluation” (Eur J Med Chem, 2013):

Assays:
[1] = system: SN12C; assay: Growth inhibition of human SN12C cells after 48 hrs by sulforhodamine B assay; assay type: functional
[2] = system: K562; assay: Growth inhibition of human K562 cells after 48 hrs by sulforhodamine B assay; assay type: functional; details: K562, 48 h
[3] = system: MDA-MB-468; assay: Growth inhibition of human MDA-MB-468 cells after 48 hrs by sulforhodamine B assay; assay type: functional, cell-based; details: MDA-MB-468, 48 h
[4] = system: DU-145; assay: Growth inhibition of human DU145 cells after 48 hrs by sulforhodamine B assay; assay type: functional; details: DU-145, 48 h
[5] = system: NCI-H322M; assay: Growth inhibition of human NCI-H322M cells after 48 hrs by sulforhodamine B assay; assay type: functional
[6] = system: RPMI-8226; assay: Growth inhibition of human RPMI8226 cells after 48 hrs by sulforhodamine B assay; assay type: functional, cell-based; details: RPMI-8226, 48 h
[7] = system: HOP-92; assay: Growth inhibition of human HOP92 cells after 48 hrs by sulforhodamine B assay; assay type: functional, cell-based; details: HOP-92, 48 h
[8] = system: T47D; assay: Growth inhibition of human T47D cells after 48 hrs by sulforhodamine B assay; assay type: functional
[9] = system: TK-10; assay: Growth inhibition of human TK10 cells after 48 hrs by sulforhodamine B assay; assay type: functional; details: TK-10, 48 h
[10] = system: HL-60(TB); assay: Growth inhibition of human HL-60(TB) cells after 48 hrs by sulforhodamine B assay; assay type: functional; details: HL-60, 48 h
[11] = system: Malme-3M; assay: Growth inhibition of human MALME-3M cells assessed as cell growth at 10 uM after 48 hrs by sulforhodamine B assay; assay type: functional; details: read-out: Activity
[12] = system: MCF7; assay: Growth inhibition of human MCF7 cells after 48 hrs by sulforhodamine B assay; assay type: functional; details: MCF7, 48 h
[13] = system: HOP-92; assay: Growth inhibition of human HOP92 cells assessed as cell growth at 10 uM after 48 hrs by sulforhodamine B assay; assay type: functional; details: HOP-92, 48 h, read-out: Activity
[14] = system: IGROV-1; assay: Growth inhibition of human IGROV1 cells assessed as cell growth at 10 uM after 48 hrs by sulforhodamine B assay; assay type: functional; details: IGROV-1, 48 h, read-out: Activity
[15] = Growth inhibition of human HCC2998 cells assessed as cell growth at 10 uM after 48 hrs by sulforhodamine B assay; assay type: functional; details: HCC 2998, 48 h, read-out: Activity
[16] = system: TK-10; assay: Growth inhibition of human TK10 cells assessed as cell growth at 10 uM after 48 hrs by sulforhodamine B assay; assay type: functional; details: TK-10, 48 h, read-out: Activity
[17] = system: NCI-H460; assay: Growth inhibition of human NCI-H460 cells assessed as cell growth at 10 uM after 48 hrs by sulforhodamine B assay; assay type: functional; details: NCI-H460, 48 h, read-out: Activity
[18] = system: A549; assay: Growth inhibition of human A549/ATCC cells after 48 hrs by sulforhodamine B assay; assay type: functional; details: A549, 48 h
[19] = system: SNB-19; assay: Growth inhibition of human SNB19 cells assessed as cell growth at 10 uM after 48 hrs by sulforhodamine B assay; assay type: functional; details: SNB-19, 48 h, read-out: Activity
[20] = system: MDA-MB-231; assay: Growth inhibition of human MDA-MB-231 cells assessed as cell growth at 10 uM after 48 hrs by sulforhodamine B assay; assay type: functional; details: MDA-MB-231, 48 h, read-out: Activity
[21] = system: K562; assay: Growth inhibition of human K562 cells assessed as cell growth at 10 uM after 48 hrs by sulforhodamine B assay; assay type: functional; details: K562, 48 h, read-out: Activity
[22] = system: MDA-MB-468; assay: Growth inhibition of human MDA-MB-468 cells assessed as cell growth at 10 uM after 48 hrs by sulforhodamine B assay; assay type: functional; details: MDA-MB-468, 48 h, read-out: Activity
[23] = system: OVCAR-3; assay: Growth inhibition of human OVCAR3 cells after 48 hrs by sulforhodamine B assay; assay type: functional, cell-based; details: OVCAR-3, 48 h
[24] = system: SK-MEL-2; assay: Growth inhibition of human SK-MEL-2 cells after 48 hrs by sulforhodamine B assay; assay type: functional; details: SK-MEL-2, 48 h
[25] = system: A549; assay: Growth inhibition of human A549/ATCC cells assessed as cell growth at 10 uM after 48 hrs by sulforhodamine B assay; assay type: functional; details: A549, 48 h, read-out: Activity
[26] = Growth inhibition of human Hs 578T cells after 48 hrs by sulforhodamine B assay; assay type: functional
[27] = system: HCT-15; assay: Growth inhibition of human HCT15 cells assessed as cell growth at 10 uM after 48 hrs by sulforhodamine B assay; assay type: functional; details: HCT-15, 48 h, read-out: Activity
[28] = system: CCRF-CEM; assay: Growth inhibition of human CCRF-CEM cells assessed as cell growth at 10 uM after 48 hrs by sulforhodamine B assay; assay type: functional; details: read-out: Activity
[29] = system: SK-MEL-2; assay: Growth inhibition of human SK-MEL-2 cells assessed as cell growth at 10 uM after 48 hrs by sulforhodamine B assay; assay type: functional; details: SK-MEL-2, 48 h, read-out: Activity
[30] = system: SNB-75; assay: Growth inhibition of human SNB75 cells after 48 hrs by sulforhodamine B assay; assay type: functional; details: SNB-75, 48 h
[31] = system: LOX IMVI; assay: Growth inhibition of human LOXIMVI cells after 48 hrs by sulforhodamine B assay; assay type: functional
[32] = system: NCI-H226; assay: Growth inhibition of human NCI-H226 cells after 48 hrs by sulforhodamine B assay; assay type: functional; details: NCI-H226, 48 h
[33] = system: KM12; assay: Growth inhibition of human KM12 cells after 48 hrs by sulforhodamine B assay; assay type: functional, cell-based; details: KM12, 48 h
[34] = system: RXF 393; assay: Growth inhibition of human RXF393 cells assessed as cell growth at 10 uM after 48 hrs by sulforhodamine B assay; assay type: functional; details: RXF 393, 48 h, read-out: Activity
[35] = read-out: LC50 (the source's name)

`COc1cc(-c2nn(-c3cccc(NC(=O)c4cccc(C(F)(F)F)c4)c3)cc2-c2ccncc2)ccc1Cl` gave a GI50 [1] of 3.31 µM, a TGI [1] greater than 50 µM and a CC50 [1, 35] greater than 50 µM. It also gave a GI50 [2] of 1.4 µM, a TGI [2] greater than 50 µM and a CC50 [2, 35] greater than 50 µM. For the same molecule, the GI50 [3] was 1.32 µM, the IC50 [3] was 1.32 µM and the TGI [3] was 4.56 µM. For the same molecule, the CC50 [3, 35] was greater than 50 µM, the GI50 [4] was 1.76 µM and the LC50 [4] was greater than 50 µM. For the same molecule, the TGI [4] was 32.1 µM, the GI50 [5] was 10.8 µM and the TGI [5] was greater than 50 µM. The CC50 [5, 35] was greater than 50 µM, the GI50 [6] was 1.57 µM and the IC50 [6] was 1.57 µM. The TGI [6] was 26.6 µM, the CC50 [6, 35] was greater than 50 µM and the GI50 [7] was 0.555 µM. It also gave an IC50 [7] of 0.56 µM, an LC50 [7] greater than 50 µM and a TGI [7] of 3.12 µM. The GI50 [8] was 2.55 µM, the TGI [8] was greater than 50 µM and the CC50 [8, 35] was greater than 50 µM. It also gave a GI50 [9] of 3.24 µM, a TGI [9] greater than 50 µM and a CC50 [9, 35] greater than 50 µM. For the same molecule, the GI50 [10] was 2.02 µM, the TGI [10] was greater than 50 µM and the CC50 [10, 35] was greater than 50 µM. The growth at 10 µM [11] was 10.1%, the GI50 [12] was 1.43 µM and the LC50 [12] was greater than 50 µM. The TGI [12] was greater than 50 µM, the growth at 10 µM [13] was -5.59% and the growth at 10 µM [14] was 34%. For the same molecule, the growth at 10 µM [15] was 0.91%, the growth at 10 µM [16] was 8.08% and the growth at 10 µM [17] was 4.83%. It also gave a GI50 [18] of 1.87 µM, an LC50 (concentration killing 50% of starting cells) [18] greater than 50 µM and a TGI [18] greater than 50 µM. For the same molecule, the growth at 10 µM [19] was 47.3%, the growth at 10 µM [20] was 4.67% and the growth at 10 µM [21] was 6.11%. For the same molecule, the growth at 10 µM [22] was -19.4%, the GI50 [23] was 1.2 µM and the IC50 [23] was 1.2 µM. The TGI [23] was 2.98 µM, the CC50 [23, 35] was greater than 50 µM and the GI50 [24] was 1.56 µM. For the same molecule, the LC50 (50% lethal concentration) [24] was greater than 50 µM, the TGI [24] was greater than 50 µM and the growth at 10 µM [25] was 7.4%. The GI50 [26] was 1.07 µM, the TGI [26] was greater than 50 µM and the CC50 [26, 35] was greater than 50 µM. It also gave a growth at 10 µM [27] of 12.8%, a growth at 10 µM [28] of 3.1% and a growth at 10 µM [29] of -38.6%. The GI50 [30] was 1.13 µM, the LC50 (lethal concentration, 50% net cell kill) [30] was greater than 50 µM and the GI50 [31] was 1.39 µM. It also gave an LC50 [31] greater than 50 µM, a TGI [31] greater than 50 µM and a GI50 [32] of 1.66 µM. For the same molecule, the TGI [32] was 27 µM, the CC50 [32, 35] was greater than 50 µM and the GI50 [33] was 1.66 µM. For the same molecule, the TGI [33] was greater than 50 µM, the CC50 [33, 35] was greater than 50 µM and the growth at 10 µM [34] was -42.8%.
